pIC50: −log10 of the molar value.
What was measured:
[1] = test system: HepG2; assay: In vitro antiviral activity against HBV in Hep G2 cells; format: functional, cell-based; conditions: Homo sapiens
[2] = In vitro cytotoxic activity against Vero cells; format: cell-based; conditions: chlorocebus sabaeus, read-out: CCID50
[3] = test system: HeLa; assay: In vitro antiviral activity against HIV in HeLa CD4 cells; format: functional, cell-based; conditions: Homo sapiens

pIC50 [1] | pIC50 [3] | Compound | CC50 [2] [µM]
4.82 | 4.64 | Nc1ccn([C@H]2C=C[C@@H](CO)S2)c(=O)n1 | > 500
5.46 | 6.40 | Nc1nc(=O)n([C@@H]2C=C[C@H](CO)S2)cc1F | > 500
< 4.00 | < 4.30 | Nc1nc(=O)n([C@@H]2CC[C@H](CO)O2)cc1F | > 500
6.10 | 6.10 | Nc1ccn([C@@H]2C=C[C@H](CO)S2)c(=O)n1 | > 500

Continued, molecule first:

Compound | pIC50 [1] | pIC50 [3] | CC50 [2] [µM]
Nc1ccn([C@@H]2CC[C@H](CO)O2)c(=O)n1 | < 4.00 | < 4.30 | > 500
Nc1ccn([C@H]2CC[C@@H](CO)O2)c(=O)n1 [ZALCITABINE] | < 4.00 | 4.42 | > 500
Nc1nc(=O)n([C@H]2C=C[C@@H](CO)S2)cc1F | < 4.30 | > 4.30 | > 500

Reference: ChEMBL document CHEMBL1150024, “Synthesis and antiviral evaluation of enantiomeric 2,3-dideoxy- and 2,3-didehydro-2,3-dideoxy-4-thionucleosides” (Bioorg Med Chem Lett, 1995)
